Test results as given in patent publication US5393897A, “Isolation and structure of spongistatins 5,7,8 and 9” (Arizona Board of Regents acting on behalf of Arizona State …, priority 1993, dated 1995).
Values after ≈ are worked out from the molar mass of the structure shown. Read-outs that look alike come from different tables or passages of the source.

Experiments:
[1] = system: 60 human tumor cell lines; assay: NCI in vitro primary screen, panel of 60 human tumor cell lines; assay type: cell-based; conditions: for GI50: Homo sapiens
Excerpt: Only two hundred years ago, many diseases ravaged humankind. Many of these diseases now have been controlled or eradicated. In the development of the means to treat or control these diseases, work with the appropriate common experimental animals was of critical importance. With the various types of cancers, and with the HIV virus, such work is presently ongoing. The research for the treatment of various types of cancer is coordinated in the United States by the National Cancer Institute (NCI). NCI, as a government entity, has been charged with assisting anti-cancer research. To establish whether a substance has anti-cancer activity, NCI has established a variety of protocols, one of which involves testing the candidate substance against a cell line panel containing 60 human tumor cell lines. This protocol has been verified and is generally accepted throughout the scientific community. This protocol and the established statistical means of evaluating the results obtained therefrom have been fully described in the literature. See Principles & Practice of Oncology PPO Updates, Volume 3, Number 10, October 1989, by Michael R. Boyd, M.D., Ph.D., for an in depth description of the test protocol. The statistical analysis is explained in "Display and Analysis of Patterns of Differential Activity of Drugs Against Human Tumor Cell Lines: Development of Means Graph and COMPARE Algorithm" Journal of the National Cancer Institute Reports Vol. 81, No. 14, Pg. 1088, Jul. 14, 1989, by K. D. Paull et al. Both of these references are incorporated herein by this reference thereto. The effectiveness and validity of the NCI in vitro protocol continues to be verified.
^a All compounds were tested in quadruplicate at five different con-
entire panel of 60 human tumor cell lines comprising the NCI
^c Correlation coefficients from the Compare pattern-recognition
algorithm were calculated by computer using the TGI-centered
mean graph profiles of differential cellular sensitivities to 1, and
5. The TGI mean graph profile of 1 was used as the benchmark or
"seed" for all of the comparisons.

[2] = system: P388; conditions: IP, Q1D × 9, female mice
[3] = system: 60 human tumor cell lines; conditions: Background on spongistatins from Spongia sp; cited from earlier work
[4] = system: P388 lymphocytic leukemia cell line; assay: P388 lymphocytic leukemia cell line bioassay; assay type: cell-based; conditions: Mus musculus; PS (P388); pure compound; read-out: ED50 (the source's name)

SMILES	% ILS (increase in life span over controls) ([2]; 40 μg/kg/dose)	potency in NCI panel [3]	IC50 [4] [ng/mL]	other results
C=C(Cl)/C=C/C(O)CC(=C)CC1OC2C(C)C(OC(=O)CC3CC(OC(C)=O)CC4(CC(C)(O)CC(CC(=C)C(C)C(OC(C)=O)C(C)C(=O)CC5CC(OC)CC6(CC(O)CC(/C=C\CCCC7OC(O)(CC(O)C7C)C2O)O6)O5)O4)O3)C1O (stereo not drawn) [spongistatin 1, reference compound]	-10%	one of the most extraordinarily potent substances presently known		GI50 ([1]; NCI 60 cell line panel, read-out: panel mean GI50): 0.1 nM; GI50 ([1]; quadruplicate, five concentrations, standard errors averaged less than 15% of means, read-out: Mean Panel GI50): 0.117 nM; Compare Correlation Coefficient ([1]; TGI-centered mean graph profiles, spongistatin 1 as seed): 1.00; correlation of mean-graph fingerprint with microtubule-interactive antimitotics ([1]; pattern-recognition analyses, data not shown): closely correlated; % ILS (increase in life span over controls) ([2]; 25 μg/kg/dose): +33%
C=C(Cl)/C=C/[C@H](O)CC(=C)C[C@H]1OC2[C@@H](O)[C@]3(O)C[C@@H](O)[C@H](C)[C@H](CCC/C=C\[C@@H]4C[C@@H](O)C[C@]5(C[C@H](OC)CC(CC(=O)[C@@H](C)[C@H](OC(C)=O)[C@@H](C)C(=C)C[C@@H]6C[C@@](C)(O)C[C@]7(C[C@H](O)CC(CC(=O)O[C@@H]([C@@H]1O)[C@H]2C)O7)O6)O5)O4)O3 [spongistatin 3]		exceptionally potent		
C=C(Cl)/C=C/[C@H](O)CC(=C)C[C@H]1OC2[C@@H](O)[C@]3(O)C[C@@H](O)[C@H](C)[C@H](CCC/C=C\[C@@H]4C[C@@H](O)C[C@]5(C[C@H](OC)CC(CC(=O)[C@@H](C)[C@H](O)[C@@H](C)C(=C)C[C@@H]6C[C@@](C)(O)C[C@]7(C[C@H](OC(C)=O)CC(CC(=O)O[C@@H]([C@@H]1O)[C@H]2C)O7)O6)O5)O4)O3 [spongistatin 4]				% ILS (increase in life span over controls) ([2]; 5 μg/kg/dose): +55%
C=C/C=C/C(O)CC(=C)CC1OC2C(C)C(OC(=O)CC3CC(OC(C)=O)CC4(CC(C)(O)CC(CC(=C)C(C)C(O)C(C)C(=O)CC5CC(OC)CC6(CC(O)CC(/C=C\CCCC7OC(O)(CC(O)C7C)C2O)O6)O5)O4)O3)C1O (stereo not drawn) [spongistatin 6]	+70%			
C=C/C=C/C(O)CC(=C)CC1OC2C(C)C(OC(=O)CC3CC(OC(C)=O)CC4(CC(C)(O)CC(C=C5COC(C(C)C(=O)CC6CC(OC)CC7(CC(O)CC(/C=C\CCCC8OC(O)(CC(O)C8C)C2O)O7)O6)C5C)O4)O3)C1O (stereo not drawn) [spongistatin 8]			0.8 (≈ 0.698 nM)	
C=C(Cl)/C=C/C(O)CC(=C)CC1OC2C(C)C(OC(=O)CC3CC(OC(C)=O)CC4(CC(C)(O)CC(C=C5COC(C(C)C(=O)CC6CC(OC)CC7(CC(O)CC(/C=C\CCCC8OC(O)(CC(O)C8C)C2O)O7)O6)C5C)O4)O3)C1O (stereo not drawn) [spongistatin 9]			< 0.1	
